Legend:
[1] = cited from earlier work
[2] = Degradation of Reb D and Reb M in phosphate buffer at 40° C. for 8 weeks, analysed by HPLC; format: physicochemical; conditions: for % Reb D degradation 2 weeks: 2 weeks at 40° C.; for % Reb D degradation 4 weeks: 4 weeks at 40° C.; for % Reb D degradation 6 weeks: 6 weeks at 40° C.; for % Reb D degradation 8 weeks: 8 weeks at 40° C.
Protocol: A study was carried out as follows, samples were prepared comprising 50 ppm, 150 ppm, 250 ppm and 400 ppm, of Reb D and samples with the following ratios of Reb D:Reb M 1:4, 1:1, 4:1 wherein the total concentration of the sample was 400 ppm. The samples were prepared in phosphate buffer and the pH was adjusted using phosphoric acid. Samples were prepared at the following pH; 2.0, 2.5, 3.0 and 3.5. These samples were incubated at 40° C. for 8 weeks. This incubation protocol should mimic the degradation at room temperature over 6 months. The amount of Reb D and Reb M in each sample at T=0 was calculated by HPLC this was then used to calculate the amount of remaining Reb M in each sample at each specified time point. Aliquots were taken at 2, 4, 6 and 8 weeks and analysed by HPLC to determine the degradation of Reb D and combinations of Reb D and Reb M over the 8 week study.

[3] = pH 2, Reb D 0.008 % w/w + Reb M 0.032 % w/w
[4] = pH 2, Reb D 0.02 % w/w + Reb M 0.02 % w/w
[5] = pH 2, Reb D 0.032 % w/w + Reb M 0.008 % w/w
[6] = pH 2.5, Reb D 0.005 % w/w alone
[7] = pH 2.5, Reb D 0.008 % w/w + Reb M 0.032 % w/w
[8] = pH 2.5, Reb D 0.015 % w/w alone
[9] = pH 2.5, Reb D 0.02 % w/w + Reb M 0.02 % w/w
[10] = pH 2.5, Reb D 0.025 % w/w alone
[11] = pH 2.5, Reb D 0.032 % w/w + Reb M 0.008 % w/w
[12] = pH 3, Reb D 0.008 % w/w + Reb M 0.032 % w/w
[13] = pH 3, Reb D 0.02 % w/w + Reb M 0.02 % w/w
[14] = pH 3, Reb D 0.032 % w/w + Reb M 0.008 % w/w
[15] = pH 3.5, Reb D 0.005 % w/w alone
[16] = pH 3.5, Reb D 0.008 % w/w + Reb M 0.032 % w/w
[17] = pH 3.5, Reb D 0.015 % w/w alone
[18] = pH 3.5, Reb D 0.02 % w/w + Reb M 0.02 % w/w
[19] = pH 3.5, Reb D 0.025 % w/w alone
[20] = pH 3.5, Reb D 0.032 % w/w + Reb M 0.008 % w/w

## C=C1C[C@@]23CC[C@H]4[C@@](C)(CCC[C@@]4(C)C(=O)O[C@@H]4O[C@H](CO)[C@@H](O)[C@H](O)[C@H]4O[C@@H]4O[C@H](CO)[C@@H](O)[C@H](O)[C@H]4O)[C@@H]2CC[C@]1(O[C@@H]1O[C@H](CO)[C@@H](O)[C@H](O[C@@H]2O[C@H](CO)[C@@H](O)[C@H](O)[C@H]2O)[C@H]1O[C@@H]1O[C@H](CO)[C@@H](O)[C@H](O)[C@H]1O)C3 [Reb D, rebaudioside D]
[1]
  Sweetness potency (relative to sucrose): 221
[2]; across pH 2.0 to 3.5
  degradation of low concentration sample of Reb D versus higher concentration samples: degraded more quickly
[2]; pH 2.0
  additional degradation of 50 ppm Reb D sample versus 80 ppm Reb D sample in combination with 320 ppm Reb M: approx. 10%
[2]; pH 2, Reb D 0.005 % w/w alone
  % Reb D degradation 2 weeks: 37%
  % Reb D degradation 4 weeks: 73%
  % Reb D degradation 6 weeks: 84%
  % Reb D degradation 8 weeks: 91%
[2]; [3]
  % Reb D degradation 2 weeks: 36%
  % Reb D degradation 4 weeks: 62%
  % Reb D degradation 6 weeks: 76%
  % Reb D degradation 8 weeks: 85%
[2]; pH 2, Reb D 0.015 % w/w alone
  % Reb D degradation 2 weeks: 28%
  % Reb D degradation 4 weeks: 70%
  % Reb D degradation 6 weeks: 82%
  % Reb D degradation 8 weeks: 90%
[2]; [4]
  % Reb D degradation 2 weeks: 28%
  % Reb D degradation 4 weeks: 59%
  % Reb D degradation 6 weeks: 72%
  % Reb D degradation 8 weeks: 82%
[2]; pH 2, Reb D 0.025 % w/w alone
  % Reb D degradation 2 weeks: 32%
  % Reb D degradation 4 weeks: 68%
  % Reb D degradation 6 weeks: 81%
  % Reb D degradation 8 weeks: 89%
[2]; [5]
  % Reb D degradation 2 weeks: 37%
  % Reb D degradation 4 weeks: 63%
  % Reb D degradation 6 weeks: 78%
  % Reb D degradation 8 weeks: 86%
[2]; pH 2, Reb D 0.04 % w/w alone
  % Reb D degradation 2 weeks: 32%
  % Reb D degradation 4 weeks: 66%
  % Reb D degradation 6 weeks: 79%
  % Reb D degradation 8 weeks: 86%
[2]; pH 2.0 and 2.5, averaged over samples
  degradation of Reb D samples which also contained Reb M versus Reb D samples alone (FIG. 4): degraded less
[2]; [6]
  % Reb D degradation 2 weeks: 11%
  % Reb D degradation 4 weeks: 37%
  % Reb D degradation 6 weeks: 44%
  % Reb D degradation 8 weeks: 55%
[2]; [7]
  % Reb D degradation 2 weeks: 8%
  % Reb D degradation 4 weeks: 28%
  % Reb D degradation 6 weeks: 37%
  % Reb D degradation 8 weeks: 42%
[2]; [8]
  % Reb D degradation 2 weeks: 10%
  % Reb D degradation 4 weeks: 32%
  % Reb D degradation 6 weeks: 40%
  % Reb D degradation 8 weeks: 50%
[2]; [9]
  % Reb D degradation 2 weeks: 7%
  % Reb D degradation 4 weeks: 25%
  % Reb D degradation 6 weeks: 33%
  % Reb D degradation 8 weeks: 42%
[2]; [10]
  % Reb D degradation 2 weeks: 8%
  % Reb D degradation 4 weeks: 27%
  % Reb D degradation 6 weeks: 34%
  % Reb D degradation 8 weeks: 44%
[2]; [11]
  % Reb D degradation 2 weeks: 5%
  % Reb D degradation 4 weeks: 23%
  % Reb D degradation 6 weeks: 33%
  % Reb D degradation 8 weeks: 42%
[2]; pH 2.5, Reb D 0.04 % w/w alone
  % Reb D degradation 2 weeks: 7%
  % Reb D degradation 4 weeks: 25%
  % Reb D degradation 6 weeks: 34%
  % Reb D degradation 8 weeks: 43%
[2]; pH 3, Reb D 0.005 % w/w alone
  % Reb D degradation 2 weeks: 0%
  % Reb D degradation 4 weeks: 17%
  % Reb D degradation 6 weeks: 22%
  % Reb D degradation 8 weeks: 29%
[2]; [12]
  % Reb D degradation 2 weeks: 1%
  % Reb D degradation 4 weeks: 17%
  % Reb D degradation 6 weeks: 22%
  % Reb D degradation 8 weeks: 24%
[2]; pH 3, Reb D 0.015 % w/w alone
  % Reb D degradation 2 weeks: 0%
  % Reb D degradation 4 weeks: 11%
  % Reb D degradation 6 weeks: 16%
  % Reb D degradation 8 weeks: 22%
[2]; [13]
  % Reb D degradation 2 weeks: 0%
  % Reb D degradation 4 weeks: 17%
  % Reb D degradation 6 weeks: 20%
  % Reb D degradation 8 weeks: 23%
[2]; pH 3, Reb D 0.025 % w/w alone
  % Reb D degradation 2 weeks: 1%
  % Reb D degradation 4 weeks: 10%
  % Reb D degradation 6 weeks: 13%
  % Reb D degradation 8 weeks: 19%
[2]; [14]
  % Reb D degradation 2 weeks: 1%
  % Reb D degradation 4 weeks: 14%
  % Reb D degradation 6 weeks: 17%
  % Reb D degradation 8 weeks: 20%
[2]; pH 3, Reb D 0.04 % w/w alone
  % Reb D degradation 2 weeks: 0%
  % Reb D degradation 4 weeks: 9%
  % Reb D degradation 6 weeks: 11%
  % Reb D degradation 8 weeks: 18%
[2]; pH 3.5, Reb D 0.005 % w/w (50 ppm) alone
  % Reb D degradation 8 weeks: 20%
[2]; [15]
  % Reb D degradation 2 weeks: 1%
  % Reb D degradation 4 weeks: 10%
  % Reb D degradation 6 weeks: 14%
[2]; [16]
  % Reb D degradation 2 weeks: 0%
  % Reb D degradation 4 weeks: 6%
  % Reb D degradation 6 weeks: 6%
  % Reb D degradation 8 weeks: 9%
[2]; [17]
  % Reb D degradation 2 weeks: 0%
  % Reb D degradation 4 weeks: 4%
  % Reb D degradation 6 weeks: 5%
  % Reb D degradation 8 weeks: 8%
[2]; [18]
  % Reb D degradation 2 weeks: 0%
  % Reb D degradation 4 weeks: 6%
  % Reb D degradation 6 weeks: 8%
  % Reb D degradation 8 weeks: 9%
[2]; [19]
  % Reb D degradation 2 weeks: 0%
  % Reb D degradation 4 weeks: 2%
  % Reb D degradation 6 weeks: 2%
  % Reb D degradation 8 weeks: 5%
[2]; [20]
  % Reb D degradation 2 weeks: 1%
  % Reb D degradation 4 weeks: 2%
  % Reb D degradation 6 weeks: 2%
  % Reb D degradation 8 weeks: 5%
[2]; pH 3.5, Reb D 0.04 % w/w (400 ppm) alone
  % Reb D degradation 8 weeks: 5%
[2]; pH 3.5, Reb D 0.04 % w/w alone
  % Reb D degradation 2 weeks: 1%
  % Reb D degradation 4 weeks: 1%
  % Reb D degradation 6 weeks: 1%
[2]; pH range 2.0 to 2.5
  stability of Reb D combined with Reb M in a ratio of about 1:1, compared to on its own: most stable

Source: patent US11812767B2, “Beverage having Reb D and Reb M” (SUNTORY HOLDINGS LIMITED, priority 2018, dated 2023)
